Data set [1] deals with T1, Proteinase-activated receptor 4 (Homo sapiens) (UniProt Q96RI0).
T1 sequence (whole entry): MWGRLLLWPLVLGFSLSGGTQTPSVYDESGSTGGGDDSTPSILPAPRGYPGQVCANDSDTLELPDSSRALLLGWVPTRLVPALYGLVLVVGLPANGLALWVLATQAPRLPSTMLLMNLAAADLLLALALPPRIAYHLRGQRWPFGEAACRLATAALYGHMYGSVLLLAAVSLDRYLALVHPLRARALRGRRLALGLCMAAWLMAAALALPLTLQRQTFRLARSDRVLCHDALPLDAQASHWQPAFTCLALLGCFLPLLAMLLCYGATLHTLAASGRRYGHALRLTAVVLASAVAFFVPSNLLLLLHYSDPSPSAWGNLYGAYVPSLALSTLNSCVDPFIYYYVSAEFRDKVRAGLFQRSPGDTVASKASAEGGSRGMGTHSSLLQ
Description: Antagonist activity against PAR4 activating peptide domain in human platelets assessed as inhibition of alpha2bbeta3 activation level at 10 uM by PAC1 binding assay.

The target in data set [2] is T2, Proteinase-activated receptor 4 (Homo sapiens, UniProt Q96RI0).
T2 sequence (Q96RI0 whole entry): T1 sequence (whole entry)
Description: Antagonist activity against PAR4 activating peptide domain in human platelets assessed as inhibition of alpha2bbeta3 activation level by PAC1 binding assay.

In data set [3] the target is T3, Proteinase-activated receptor 1 (Homo sapiens, UniProt P25116).
T3 sequence (P25116 whole entry): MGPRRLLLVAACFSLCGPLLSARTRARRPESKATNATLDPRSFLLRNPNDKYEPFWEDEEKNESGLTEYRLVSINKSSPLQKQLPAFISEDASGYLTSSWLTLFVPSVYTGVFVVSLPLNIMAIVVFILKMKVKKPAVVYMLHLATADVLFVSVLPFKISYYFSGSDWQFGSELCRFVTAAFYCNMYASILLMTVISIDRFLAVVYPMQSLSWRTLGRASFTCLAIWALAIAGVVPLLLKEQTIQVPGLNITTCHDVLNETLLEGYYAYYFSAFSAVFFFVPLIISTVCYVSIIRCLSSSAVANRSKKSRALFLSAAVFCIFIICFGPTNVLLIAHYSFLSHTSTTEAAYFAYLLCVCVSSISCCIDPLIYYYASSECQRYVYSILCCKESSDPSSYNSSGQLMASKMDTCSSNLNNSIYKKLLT
Description: Inhibition of PAR1 (unknown origin).

Data set [4] concerns the target T1, Proteinase-activated receptor 4 (Homo sapiens). Description: Mixed competitive/non-competitive inhibition of PAR4 activating peptide domain in human platelets assessed as inhibition of alpha2bbeta3 activation level by PAC1 binding assay based by Schild analysis.
A further data set concerns the target T4, Cytochrome P450 1A2 (Homo sapiens, UniProt P05177).
T4 sequence (P05177 whole entry): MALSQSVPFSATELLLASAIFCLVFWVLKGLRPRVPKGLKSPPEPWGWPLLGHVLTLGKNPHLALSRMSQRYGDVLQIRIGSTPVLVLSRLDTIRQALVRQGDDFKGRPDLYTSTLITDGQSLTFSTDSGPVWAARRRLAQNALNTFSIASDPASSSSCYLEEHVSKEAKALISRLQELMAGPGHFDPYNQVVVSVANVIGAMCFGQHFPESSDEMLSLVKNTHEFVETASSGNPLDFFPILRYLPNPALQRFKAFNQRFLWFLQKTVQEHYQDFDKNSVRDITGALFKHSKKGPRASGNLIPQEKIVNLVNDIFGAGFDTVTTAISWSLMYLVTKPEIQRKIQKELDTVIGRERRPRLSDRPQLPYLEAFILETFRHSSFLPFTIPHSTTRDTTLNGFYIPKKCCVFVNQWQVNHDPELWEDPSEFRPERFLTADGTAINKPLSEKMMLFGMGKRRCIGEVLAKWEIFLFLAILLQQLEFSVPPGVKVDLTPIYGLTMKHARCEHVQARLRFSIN
Description: Inhibition of CYP1A2 in human liver microsomes incubated for 15 mins using phenacetin substrate in presence of NADPH by LC-MS/MS method. For orientation: Liver microsomes are vesicles of endoplasmic reticulum, rich in cytochrome P450 enzymes.

Data set [5] deals with T2, Proteinase-activated receptor 4. Description: Antagonist activity at PAR4 TL domain in human platelets assessed as gamma-thrombin-induced PAC1 binding response preincubated for 20 mins followed by agonist addition for 20 mins by FITC based flow cytometric analysis. A general note: A flow cytometer gives signals particle by particle.
Another data set deals with Cytochrome P450 3A4 (Homo sapiens, UniProt P08684). Description: Inhibition of CYP3A4 in human liver microsomes incubated for 15 mins using midazolam substrate in presence of NADPH by LC-MS/MS method.
Cytochrome P450 3A4, sequence (P08684 whole entry): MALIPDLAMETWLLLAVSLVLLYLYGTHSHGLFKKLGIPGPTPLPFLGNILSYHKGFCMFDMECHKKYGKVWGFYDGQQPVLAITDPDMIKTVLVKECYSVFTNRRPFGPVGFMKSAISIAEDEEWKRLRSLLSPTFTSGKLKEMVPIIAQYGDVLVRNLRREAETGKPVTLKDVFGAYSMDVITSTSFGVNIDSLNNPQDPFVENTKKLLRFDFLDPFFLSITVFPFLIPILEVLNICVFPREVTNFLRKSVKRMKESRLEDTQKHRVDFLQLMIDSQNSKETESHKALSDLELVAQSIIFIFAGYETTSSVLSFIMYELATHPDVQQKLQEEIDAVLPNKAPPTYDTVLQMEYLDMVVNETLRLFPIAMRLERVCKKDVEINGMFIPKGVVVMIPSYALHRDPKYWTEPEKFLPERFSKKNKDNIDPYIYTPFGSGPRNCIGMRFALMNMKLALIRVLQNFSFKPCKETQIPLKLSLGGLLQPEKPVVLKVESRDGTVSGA
Data set [6] in a line: Half life in Sprague-Dawley rat at 0.2 mg/kg, iv through cassette dosing up to 6 hrs by LC-MS/MS method. The settings on record: in vivo.
The nature of data set [7]: Volume of distribution in steady state in Sprague-Dawley rat at 0.2 mg/kg, iv through cassette dosing up to 6 hrs by LC-MS/MS method. The settings on record: in vivo.
Data set [8] can be described thus: Unbound protein binding in human plasma at 5 uM after 4 hrs by LC/MS/MS analysis.
Data set [9] in a line: Unbound protein binding in rat plasma at 5 uM after 4 hrs by LC/MS/MS analysis.
Data set [10] addresses T1, Proteinase-activated receptor 4 (Homo sapiens). Description: Antagonist activity at PAR4 TL domain in human platelets assessed as gamma-thrombin-induced PAC1 binding response at 10 uM preincubated for 20 mins followed by agonist addition for 20 mins by FITC based flow cytometric analysis.
Another data set concerns the target Cytochrome P450 2D6 (Homo sapiens, UniProt P10635). Description: Inhibition of CYP2D6 in human liver microsomes incubated for 15 mins using dextromethorphan substrate in presence of NADPH by LC-MS/MS method.
The next data set concerns the target Cytochrome P450 2C9 (Homo sapiens, UniProt P11712). Description: Inhibition of CYP2C9 in human liver microsomes incubated for 15 mins using diclofenac substrate in presence of NADPH by LC-MS/MS method.
The target in data set [11] is T2, Proteinase-activated receptor 4. Description: Antagonist activity against PAR4 activating peptide domain in human platelets assessed as inhibition of P-selectin activation.
A short description of data set [12]: Unbound protein binding in rat plasma. Type of data set: ADME, cell-free.
The nature of data set [13]: Unbound protein binding in human plasma. Type of data set: ADME, cell-free.

The source made the active and inactive calls. The rule behind the calls is not given here.

Cytochrome P450 2C9, sequence (P11712 whole entry, the tested form may be a part): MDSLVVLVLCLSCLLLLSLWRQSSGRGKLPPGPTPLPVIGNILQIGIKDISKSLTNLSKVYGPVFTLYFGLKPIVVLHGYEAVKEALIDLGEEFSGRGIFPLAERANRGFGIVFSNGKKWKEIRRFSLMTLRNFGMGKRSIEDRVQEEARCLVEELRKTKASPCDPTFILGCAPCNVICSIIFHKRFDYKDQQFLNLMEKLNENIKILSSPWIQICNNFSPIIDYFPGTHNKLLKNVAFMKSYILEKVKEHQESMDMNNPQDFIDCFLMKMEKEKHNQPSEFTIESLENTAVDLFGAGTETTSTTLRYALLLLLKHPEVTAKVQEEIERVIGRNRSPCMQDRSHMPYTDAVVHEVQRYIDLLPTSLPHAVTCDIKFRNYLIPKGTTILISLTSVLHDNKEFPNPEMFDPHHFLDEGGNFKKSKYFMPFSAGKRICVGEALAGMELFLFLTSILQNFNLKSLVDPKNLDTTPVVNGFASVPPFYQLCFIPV
Cytochrome P450 2D6, sequence (P10635 whole entry): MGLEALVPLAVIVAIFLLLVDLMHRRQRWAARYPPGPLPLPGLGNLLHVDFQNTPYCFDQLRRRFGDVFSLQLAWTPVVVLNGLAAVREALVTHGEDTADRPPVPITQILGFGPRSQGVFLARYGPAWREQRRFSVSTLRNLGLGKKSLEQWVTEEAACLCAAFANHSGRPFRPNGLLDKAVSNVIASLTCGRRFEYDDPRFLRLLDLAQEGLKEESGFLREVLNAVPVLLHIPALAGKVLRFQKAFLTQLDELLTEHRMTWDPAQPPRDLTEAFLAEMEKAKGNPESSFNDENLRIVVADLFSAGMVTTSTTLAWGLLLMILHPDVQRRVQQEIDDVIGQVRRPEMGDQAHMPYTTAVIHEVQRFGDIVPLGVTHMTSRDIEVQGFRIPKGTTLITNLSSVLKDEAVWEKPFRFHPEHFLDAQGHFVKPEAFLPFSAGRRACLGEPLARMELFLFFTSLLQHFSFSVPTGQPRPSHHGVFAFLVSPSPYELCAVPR

Usually IC50 stands for the midpoint of a concentration-inhibition curve. As to `COc1ncc(-c2c(CO)n(Cc3ccccc3Cl)c3ccc(OC(F)(F)F)cc23)cn1`, the %max in data set [1] is 7.95%. The IC50 in data set [2] turned out to be 1.5 µM.

`COc1cccc(Cn2c(CO)c(-c3ccc(OC)nc3)c3cc(C(F)(F)F)ccc32)c1`: the %max in data set [1] was determined as 108%. Further, the IC50 in data set [2] was above 10 µM.

As to `CSc1ncc(-c2c(CO)n(Cc3ccccc3Cl)c3cc(OC(F)(F)F)ccc23)cn1`, the %max in [1] stood at 5.57%. The IC50 in data set [2] was 0.21 µM; in data set [3], above 30 µM.

With `COc1ccc2c(-c3ccc(OC)nc3)c(CO)n(Cc3ccccc3Cl)c2c1`, the %max in data set [1] came to 4.31%. Besides, in data set [2], the IC50 stood at 1.39 µM.

Take `CCOc1ccc2c(-c3ccc(OC)nc3)c(CO)n(Cc3ccccc3Cl)c2c1`: the %max in [1] turned out to be 19.7%. Also, in [2], the IC50 was found to be 3.76 µM.

The inhibition is the relative decrease from the control value, in per cent. For `COc1ccc(-c2c(CO)n(Cc3ccccc3Cl)c3ccc(OC(F)(F)F)cc23)cn1`, the inhibition result in data set [4] is “Active”.

Regarding `COc1ncc(-c2c(CO)n(Cc3ccc(F)cc3F)c3ccc(OC(F)(F)F)cc23)cn1`, in data set [1], the %max was 53.6%.

As usually defined, the Vdss is a proportionality between amount in the body and measured concentration, not a real space. Read a low Vdss as little distribution into tissue. Regarding `COc1nn2cc(-c3c(CO)n(Cc4ccccc4Cl)c4ccc(OC(F)(F)F)cc34)nc2s1`, the concentration for half-maximal inhibition (IC50) at Cytochrome P450 1A2 was above 30 µM; in data set [5], 4.35 µM; at Cytochrome P450 3A4 it was above 30 µM; in [2] it was 0.18 µM; in data set [3] it was above 30 µM; at Cytochrome P450 2D6 it was 1.2 µM. The IC50 worked out at 11.2 µM on Cytochrome P450 2C9 and 0.132 µM in data set [11]. Moreover, the %max in data set [1] came out at 3.2%. The same compound yielded a t1/2 in data set [6] of 6.1 h. In data set [7], this compound displayed a Vdss of 21.1 L/kg. Besides, the inhibition entry in data set [4] was “Active”. The Fu worked out at 0.004 in data set [8] and 0.003 in [9]. Also, the inhibition in data set [10] was 39.4%.

For `COc1ccc(-c2c(CO)n(Cc3ccc(F)cc3F)c3ccc(OC(F)(F)F)cc23)cn1`, the %max in data set [1] worked out at 19.7%. Besides, the IC50 was 5.11 µM in data set [2] and above 30 µM in data set [3].

With `COc1ccc2c(-c3cnc(SC)nc3)c(CO)n(Cc3ccccc3Cl)c2c1`, the %max in data set [1] was 21.3%. Moreover, the IC50 in data set [2] stood at 4.15 µM.

As for `COc1ccc(-c2c(CO)n(Cc3cccc(C(F)(F)F)c3)c3ccc(OC(F)(F)F)cc23)cn1`, in data set [1], the %max was 19.7%. For the same compound, in data set [2], the IC50 is 4.82 µM.

For `COc1ccc(-c2c(CO)n(Cc3ccccc3Cl)c3cc(OC(F)(F)F)ccc23)cn1`, the %max in data set [1] turned out to be 12.3%. Further, the IC50 in data set [2] was 0.93 µM; in [3], above 30 µM.

As to `CCOC(=O)c1ccc(-c2nn(Cc3ccccc3)c3ccccc23)cc1`, the PB entry in data set [12] and in data set [13] was “Unstable” each time.

Consider `COc1ccc(-c2c(CO)n(Cc3cccc(Cl)c3)c3ccc(OC(F)(F)F)cc23)cn1`, for which, in [1], the %max turned out to be 95.5%. For the same compound, the IC50 in [2] is above 10 µM.

For the compound `OCc1c(-c2ccncc2)c2cc(OC(F)(F)F)ccc2n1Cc1ccccc1Cl`, the %max in [1] is 101%. Moreover, the IC50 in data set [2] is above 10 µM.

In the case of `COc1ccc(-c2c(CO)n(Cc3ccccc3F)c3ccc(OC(F)(F)F)cc23)cn1`, the %max in [1] was determined as 89%. The concentration for half-maximal inhibition (IC50) in data set [2] was above 10 µM.

With `CSc1ncc(-c2c(CO)n(Cc3ccc(F)cc3F)c3ccc(OC(F)(F)F)cc23)cn1`, the %max in data set [1] is 15.6%. In addition, in data set [2], the IC50 was determined as 1.49 µM.

With `COc1ccc(-c2c(CO)n(Cc3cccc(Br)c3)c3ccc(OC(F)(F)F)cc23)cn1`, the %max in [1] came out at 27.1%. For the same compound, in [2], the IC50 is 2.19 µM.

Consider `COc1ccc(-c2c(CO)n(C)c3ccc(C(F)(F)F)cc23)cn1`, for which the %max in [1] was 106%. In addition, in data set [2], the IC50 was above 10 µM.

Turning to `CCOC(=O)c1ccc(-c2cn(Cc3ccccc3)c3ccccc23)cc1`, the PB result in data set [12] and in data set [13] was “Unstable” each time.

For the compound `COc1ccc(-c2c(CO)n(Cc3ccccc3)c3ccc(OC(F)(F)F)cc23)cn1`, the %max in data set [1] is 53.4%. For the same compound, the IC50 in data set [2] is above 10 µM.

For the compound `OCc1c(-c2cncnc2)c2cc(OC(F)(F)F)ccc2n1Cc1ccc(F)cc1F`, in data set [1], the %max amounted to 96.1%. The IC50 in data set [2] is above 10 µM.

Consider `CCOc1ncc(-c2c(CO)n(Cc3ccccc3Cl)c3ccc(OC(F)(F)F)cc23)cn1`, for which the %max in data set [1] was found to be 35.4%. Besides, the IC50 in data set [2] worked out at 4.91 µM.

As to `COc1ccc(-c2c(CO)n(Cc3cccc(F)c3)c3ccc(OC(F)(F)F)cc23)cn1`, the %max in data set [1] was 80.6%. Moreover, the IC50 in [2] was above 10 µM.

Source of the values: ChEMBL document CHEMBL4477245, “Development of a Series of (1-Benzyl-3-(6-methoxypyrimidin-3-yl)-5-(trifluoromethoxy)-1H-indol-2-yl)methanols as Selective Protease Activated Receptor 4 (PAR4) Antagonists with in Vivo Utility and Activity Against γ-Thrombin” (J Med Chem, 2016).
